Each structure is given as a SMILES string.

In experiment [1] the test system is SupT1 CD4 T leukemic cells. In words: Syncytia formation in NL4-3-infected SupT1 cells. Particulars: 5 μM protease inhibitor, 2.5 days. It counts as cell-based. As to the method:
(A) The spinoculation procedure. (B) Flow cytometry of viable CD4 versus CD8-T-cells in HLAC three days after spinoculation in the presence of the indicated drugs. Data represent live-gated cells, based on the forward-scatter versus side-scatter profile of the complete culture. Of note, apoptotic cells were included in the analysis of caspases activity and cytokine expression (FIG. 10E, F). Drugs concentrations: AZT 5 μM; Efavirenz 100 nM; AMD3100 250 nM; T20 10 μg/ml. The data are representative results of six independent experiments with six different donors. […] (C) Highly permissive SupT1 CD4 T leukemic cells were infected with NL4-3 and cultivated for 3 days to allow substantial infection but not syncytia formation. […] After 2.5 days of additional culture, the extent of syncytia formation in each sample was evaluated by light microscopy. […] Results are representative of three independent experiments.

In the next experiment the test system is SupT1 cells. In words: Virion-based fusion assay (BlaM-Vpr). It counts as cell-based. Particulars: virions produced in the presence of amprenavir. As to the method: The virion-based fusion assay is performed in three successive steps: (1) incubation of target cells with virions, (2) loading of target cells with the CCF2/AM dye, and (3) development and detection of the BlaM reaction. SupT1 cells (5×10^5) were incubated with BlaM-Vpr containing virions (400 ng of p24^gag at 37° C. for 2 hours, washed in CO2-independent medium (GibCo BRL), and loaded with CCF2/AM dye as described by the manufacturer (Invitrogen). Briefly, 2 μl of CCF2/AM (1 mM) was mixed with 8 μl of 0.1% acetic acid containing 100 mg/ml Pluronic-F127R and 1 ml of DEEM to constitute the loading solution. Cells were incubated in 100 μl of loading solution for 1 hour at room temperature. After two washes with DEEM, the BlaM reaction was executed for 16 hours at room temperature in 200 μl of DMEM supplemented with 10% FBS and 2.5 mM probenecid, a nonspecific inhibitor of anion transport (Sigma Pharmaceuticals). Finally, the cells were washed once in DMEM and fixed in a 2% solution of paraformaldehyde. The change in emission fluorescence of CCF2 after cleavage by the BlaM-Vpr chimera was monitored by flow cytometry with LSR2 (Becton Dickinson, San Jose, Calif.). Data were collected with DiVa software and analyzed with FlowJo software (Treestar, San Carlos, Calif.).

Another experiment relates to NL4-3 and TR712 virions. In words: Viral maturation, immunoblot of viral lysates produced in 293T-cells. The class given is cell-based. Particulars: NL4-3 and TR712 virions produced with amprenavir. (In general: Immunoblotting shows a protein as a band on a membrane.)
Another experiment deals with CFSE-labeled CD4 T-cells. The class given is cell-based, human. Particulars: NL4-3-infected effector cells. As to the method: (A) Experimental strategy to assess indirect cell killing in HIV-1-infected human lymphoid cultures. Fresh human tonsil tissue from a single donor is processed into HLAC, and then separated into two fractions. One fraction is challenged with HIV-1 and cultured for 6 days, allowing viral spread. On day 5, the uninfected fraction is treated with AZT (5 μM) and labeled with CFSE (1 μM). On day 6, the infected and CFSE-labeled (i.e., uninfected) cultures are mixed and co-cultured in the presence of AZT. […] After 6 days of co-culturing, the number of viable CFSE-positive cells is determined by flow cytometry. (B) Flow cytometry analysis of the mixed HLACs. Indirect killing is determined by gating on live CFSE-positive cells in the mixed cultures. Effector cells are either infected or uninfected cells. […] CFSE-labeled cells mixed with uninfected or infected cells were cultured in the presence of 5 μM AZT alone or together with 250 nM AMD3100. Data represent live CFSE-positive cells 6 days after co-culture with infected or uninfected effector cells. […] The absolute numbers of viable CFSE-positive CD4 and CD8 T-cells and B cells were determined. Percentages are normalized to the number of viable CFSE-positive cells co-cultured with uninfected cells in the presence of AZT, as depicted by (*). Error bars represent standard deviations of three samples from the same donor. […] See also FIG. 3.
Human tonsil or splenic tissues from routine tonsillectomies were obtained from the National Disease Research Interchange and the Cooperative Human Tissue Network and processed as previously described (Jekle et al., 2003, J Virol 77:5846-5854). In brief, tonsils or spleen were minced, passed through a 40-μm cell strainer, and cultured in 96-well U-bottomed polystyrene plates (2×10^6 cells/well) in medium (200 μl/well) consisting of RPMI 1640 supplemented with 15% heat-inactivated fetal bovine serum, 100 μg/ml gentamicin, 200 μg/ml ampicillin, 1 mM sodium pyruvate, 1% nonessential amino acids (Mediatech), 2 mM L-glutamine, and 1% fungizone (Invitrogen). All HIV-1 infections were carried out with 20-50 ng of HIV-1 p24^gag. Cells were incubated with the virus for 12-16 h, washed extensively, and supplemented with fresh medium. After day 5, infections were monitored by measuring p24gag levels in the culture medium using a FLAQ assay (Hayden et al., 2003, AIDS 17:629-631). Infected and uninfected cultures were manipulated as described for individual experiments. In “indirect killing” assays, unless otherwise stated, drugs were used at the following concentrations: 5 μM AZT; 250 nM AMD3100; 10 μg/ml T20; 100 nM Efavirenz; 1 μM Nevirapine; 30 μM Raltegravir; 60 μM 118-D-24; 5 μM Amprenavir; 5 μM Saquinavir; 5 μM Indinavir. CFSE-labeled cells were activated with PHA (5 μg/ml) and IL-2 (20 ng/ml) 2 days before mixing with effector cells.
Uninfected cells (5×10^6/ml) were labeled with 1 μM CFSE (Molecular Probes C1157), treated with 5 μM AZT for 24 h, and co-cultured with effector cells. CFSE readily diffuses into cells, where intracellular esterases cleave the acetate groups, converting it to a fluorescent, membrane-impermeable dye.

For the next experiment, the system named is HLAC CD4 T-cells. Put plainly: HLAC cells overlaid on virus-producing 293T-cells, CD4 T-cell depletion. The class given is cell-based, human. Particulars: TR712-transfected 293T-cells in the presence of amprenavir. As to the method:
HLACs were infected with viruses derived from the indicated HIV proviral clones in the presence of the indicated concentrations of AZT or in the absence of drugs. Six days after infection the amount of p24^gag in the medium was determined by FLAQ assay. The amount of p24^gag in the medium after infection wash (day 0) was defined as 0%. […] Viral incorporation of endogenous A3G was measured by immunoblot analysis of purified NL4-3 and Δvif NL4-3 virions harvested from 1 ml of supernatant from infected HLACs. Doses reflect 1:10 dilutions. […] Resting or activated CFSE-labeled cells were co-cultured with cells infected with WT or Δvif NL4-3 in the presence or absence of the following drugs, AZT (5 μM), AMD3100 (250 nM), the NNRTIs Efavirenz (100 nM), and Nevirapine (1 μM), or the integration inhibitors Raltegravir (30 μM) and 118-D-24 (60 μM). Data are representative of four independent experiments performed with cells from four different donors. (E) A method to assess indirect killing in HLAC with non-infectious HIV-1 clones. Fresh human tonsil is processed into HLAC and cells are cultured in suspension. At the same time 293T-cells are transfected with 1 μg HIV-1 DNA in a 24-well plate. After 12 hours, 293T-cells are washed and overlayed with 3×10^6 HLAC cells in RPMI in the presence of the indicated drugs. Virus-producing 293T-cells directly interact with target overlaying HLAC cells. After 24 hours, the HLAC suspensions are collected from wells and analyzed by flow cytometry. […] HLAC were cultured with the indicated drugs 3 hours before co-culture with 293T-cells. Percentages are normalized to the number of viable CD4 T-cells in HLAC overlaying non-transfected 293T-cells in the presence of AZT, as depicted by (*). Error bars represent standard error of the mean of three experiments performed using cells from three different HLAC donors.

Protocol for NL4-3 and TR712 virions: NL4-3 and TR712 viruses were generated in 293T-cells with or without amprenavir, lysed and subjected to SDS-PAGE immunoblotting analysis for gp120, p55 Gag, p24 CA, Blam-Vpr, and free Blam. […] SupT1 cells were mock infected or infected with mature or immature NL4-3 or TR712 virions containing Blam-Vpr. After loading of cells with CCF2 dye, fusion was analyzed by flow cytometry. Percentages are the fraction of cells displaying increased cleaved CCF2 fluorescence, indicating virion fusion.
The effect of protease inhibitors on viral maturation was assessed first. NL4-3 viruses carrying a β-lactamase-Vpr (BlaM-Vpr) reporter protein were produced in 293T-cells in the presence or absence of the HIV protease inhibitor amprenavir.

`CC(C)CN(C[C@@H](O)[C@H](Cc1ccccc1)NC(=O)O[C@H]1CCOC1)S(=O)(=O)c1ccc(N)cc1` [Amprenavir]: the “syncytia formation / cell-cell fusion” value in experiment [1] is reported as “do not block syncytia formation”. Also, in the experiment on SupT1 cells, the “decline in fusogenic properties of immature NL4-3 viruses” value amounted to 90% and the “fusion capacity retained by immature TR712” value was 40%. The “Gag processing in virions” value in the experiment on NL4-3 and TR712 virions is “an uncleaved form of p55 Gag polypeptide rather than the mature p24 CA protein accumulated”. Moreover, the “indirect killing (loss) of resting CFSE-labeled CD4 T-cells” value with CFSE-labeled CD4 T-cells is “inhibit indirect killing”. Further, the “CD4 T-cell killing by TR712 viruses” value with HLAC CD4 T-cells is “prevented CD4 T-cell killing by TR712 viruses”.
